pIC50: −log10 of the molar value.

T1 sequence (P40763 whole entry): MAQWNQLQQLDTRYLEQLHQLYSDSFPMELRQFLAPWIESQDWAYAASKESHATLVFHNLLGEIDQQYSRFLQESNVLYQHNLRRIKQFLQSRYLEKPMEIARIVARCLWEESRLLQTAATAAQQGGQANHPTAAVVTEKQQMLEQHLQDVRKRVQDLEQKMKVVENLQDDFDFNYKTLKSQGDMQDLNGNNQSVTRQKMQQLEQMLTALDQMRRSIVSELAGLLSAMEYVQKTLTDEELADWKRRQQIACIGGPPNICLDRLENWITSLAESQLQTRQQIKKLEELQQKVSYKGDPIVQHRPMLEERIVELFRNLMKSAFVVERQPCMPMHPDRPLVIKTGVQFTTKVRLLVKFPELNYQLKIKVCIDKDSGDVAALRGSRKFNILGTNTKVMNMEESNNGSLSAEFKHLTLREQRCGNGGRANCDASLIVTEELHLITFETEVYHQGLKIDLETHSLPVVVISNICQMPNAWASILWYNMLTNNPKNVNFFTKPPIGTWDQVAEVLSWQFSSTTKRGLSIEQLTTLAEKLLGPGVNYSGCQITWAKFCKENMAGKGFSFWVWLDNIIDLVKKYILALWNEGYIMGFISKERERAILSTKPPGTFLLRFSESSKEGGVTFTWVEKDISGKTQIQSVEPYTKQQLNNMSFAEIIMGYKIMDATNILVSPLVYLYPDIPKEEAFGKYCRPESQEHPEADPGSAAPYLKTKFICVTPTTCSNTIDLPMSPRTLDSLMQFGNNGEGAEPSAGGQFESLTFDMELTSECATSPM

One test addresses T1, pY705-STAT3 in PBMC (Homo sapiens, UniProt P40763).
T1 construct: Cryopreserved Peripheral Blood Mononuclear Cells (PBMC) are from AllCells; host or cells: cryopreserved PBMC
Nature of the test: MSD-pSTAT-PBMC Assay (pSTAT3, IL-6 stimulated). It is filed as cell-based. The settings on record: PBMC, compound 3 hrs, then 10 ng/mL IL-6 for 10 min; Table 115; read-out: STAT3. An outline of the steps: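 pY705-STAT3 was detected electrochemiluminescently on total-STAT3 capture plates, using lysates of human PBMCs given compound for 3 h and then IL-6 (10 ng/mL, 10 min). Values were background-subtracted against unstimulated wells and set relative to DMSO. IC50 was fitted with variable slope.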
Take `CCCOC(=O)[C@H](C)NP(=O)(Cc1ccc2sc(C(=O)N[C@H]3CCC[C@H]4CC[C@@H](C(=O)N5CC(c6cccc(C#N)n6)C5)N4C3=O)cc2c1)Oc1ccccc1` (stereo partly drawn) [Compound 289, propyl (((2-(((3S,6S,9aS)-3-(3-(6-cyanopyridin-2-yl)azetidine-1-carbonyl)-5-oxooctahydro-1H-pyrrolo[1,2-a]azepin-6-yl)carbamoyl)benzo [b]thiophen-5-yl)methyl)(phenoxy)phosphoryl)-L-alaninate]: the pIC50 was greater than 7.00.
Take `CCCOC(=O)[C@H](C)NP(=O)(Cc1ccc2sc(C(=O)N[C@H]3CCC[C@H]4CC[C@@H](C(=O)N5CC(c6nccc(C#N)n6)C5)N4C3=O)cc2c1)Oc1ccccc1` (stereo partly drawn) [Compound 290, propyl (((2-(((3S,6S,9aS)-3-(3-(4-cyanopyrimidin-2-yl)azetidine-1-carbonyl)-5-oxooctahydro-1H-pyrrolo[1,2-a]azepin-6-yl)carbamoyl)benzo [b]thiophen-5-yl)methyl)(phenoxy)phosphoryl)-L-alaninate]: the pIC50 is 6.00 to 7.00.
Consider `C[C@H](NP(=O)(Cc1ccc2sc(C(=O)N[C@H]3CCC[C@H]4CC[C@@H](C(=O)N5CC(c6cccnc6)C5)N4C3=O)cc2c1)Oc1ccccc1)C(=O)OCCC(F)(F)F` (stereo partly drawn) [Compound 291, 3,3,3-trifluoropropyl (((2-(((3S,6S,9aS)-5-oxo-3-(3-(pyridin-3-yl)azetidine-1-carbonyl)octahydro-1H-pyrrolo[1,2-a]azepin-6-yl)carbamoyl)benzo [b]thiophen-5-yl)methyl)(phenoxy)phosphoryl)-L-alaninate], for which the pIC50 was greater than 7.00.
With `CCCOC(=O)[C@H](C)NP(=O)(Cc1ccc2sc(C(=O)N[C@H]3CCC[C@H]4CC[C@@H](C(=O)N5CC(c6cccnc6)C5)N4C3=O)cc2c1)Oc1c(C)cccc1C` (stereo partly drawn) [Compound 293, propyl ((2,6-dimethylphenoxy) ((2-(((3S,6S,9aS)-5-oxo-3-(3-(pyridin-3-yl)azetidine-1-carbonyl)octahydro-1H-pyrrolo[1,2-a]azepin-6-yl)carbamoyl)benzo [b]thiophen-5-yl)methyl)phosphoryl)-L-alaninate], the pIC50 was greater than 7.00.
Take `CCCOC(=O)C(C)CNP(=O)(Cc1ccc2sc(C(=O)N[C@H]3CCC[C@H]4CC[C@@H](C(=O)N5CC(c6cccnc6)C5)N4C3=O)cc2c1)Oc1ccccc1` (stereo partly drawn) [Compound 294, propyl 2-methyl-3-((((2-(((3S,6S,9aS)-5-oxo-3-(3-(pyridin-3-yl)azetidine-1-carbonyl)octahydro-1H-pyrrolo[1,2-a]azepin-6-yl)carbamoyl)benzo [b]thiophen-5-yl)methyl)(phenoxy)phosphoryl)amino) propanoate]: the pIC50 was 5.52 to 6.00.
For `CCCOC(=O)[C@H](CC)NP(=O)(Cc1ccc2sc(C(=O)N[C@H]3CCC[C@H]4CC[C@@H](C(=O)N5CC(c6cccnc6)C5)N4C3=O)cc2c1)Oc1ccccc1` (stereo partly drawn) [Compound 296, propyl (2S)-2-((((2-(((3S,6S,9aS)-5-oxo-3-(3-(pyridin-3-yl)azetidine-1-carbonyl)octahydro-1H-pyrrolo[1,2-a]azepin-6-yl)carbamoyl)benzo [b]thiophen-5-yl)methyl)(phenoxy)phosphoryl)amino) butanoate], the pIC50 is greater than 7.00.
Turning to `Cc1ccncc1C1CN(C(=O)[C@@H]2CC[C@@H]3CCC[C@H](NC(=O)c4cc5cc(C(F)(F)P(=O)(N[C@@H](C)C(=O)OCc6ccccc6)Oc6ccccc6)ccc5s4)C(=O)N32)C1` (stereo partly drawn) [Compound 297, benzyl ((difluoro(2-(((3S,6S,9aS)-3-(3-(4-methylpyridin-3-yl)azetidine-1-carbonyl)-5-oxooctahydro-1H-pyrrolo[1,2-a]azepin-6-yl)carbamoyl)benzo [b]thiophen-5-yl)methyl)(phenoxy)phosphoryl)-L-alaninate], the pIC50 is 6.00 to 7.00.
In the case of `Cc1ccncc1C1CN(C(=O)[C@@H]2CC[C@@H]3CCC[C@H](NC(=O)c4cc5cc(CP(=O)(N[C@@H](C)C(=O)OC(C)C)Oc6ccccc6)ccc5s4)C(=O)N32)C1` (stereo partly drawn) [Compound 298, isopropyl (((2-(((3S,6S,9aS)-3-(3-(4-methylpyridin-3-yl)azetidine-1-carbonyl)-5-oxooctahydro-1H-pyrrolo[1,2-a]azepin-6-yl)carbamoyl)benzo [b]thiophen-5-yl)methyl)(phenoxy)phosphoryl)-L-alaninate], the pIC50 was 6.00 to 7.00.
In the case of `CCCOC(=O)[C@H](C)NP(=O)(Cc1ccc2sc(C(=O)N[C@H]3CCC[C@H]4CC[C@@H](C(=O)N5CC(c6cnccc6N6CC(OC)C6)C5)N4C3=O)cc2c1)Oc1ccccc1` (stereo partly drawn) [Compound 300, propyl (((2-(((3S,6S,9aS)-3-(3-(4-(3-methoxyazetidin-1-yl)pyridin-3-yl)azetidine-1-carbonyl)-5-oxooctahydro-1H-pyrrolo[1,2-aJazepin-6-yl)carbamoyl)benzo [b]thiophen-5-yl)methyl)(phenoxy)phosphoryl)-L-alaninate], the pIC50 was greater than 7.00.
On the same count and under the same terms, with `CCCOC(=O)[C@H](C)NP(=O)(Cc1ccc2sc(C(=O)N[C@H]3CCC[C@H]4CC[C@@H](C(=O)N5CC(c6cnccc6N6CC[C@H]6COC)C5)N4C3=O)cc2c1)Oc1ccccc1` (stereo partly drawn) [Compound 301, propyl (((2-(((3S,6S,9aS)-3-(3-(4-((S)-2-(methoxymethyl)azetidin-1-yl)pyridin-3-yl)azetidine-1-carbonyl)-5-oxooctahydro-1H-pyrrolo[1,2-a]azepin-6-yl)carbamoyl)benzo [b]thiophen-5-yl)methyl)(phenoxy)phosphoryl)-L-alaninate] the figure was greater than 7.00; with `CCCOC(=O)[C@H](C)NP(=O)(Oc1ccccc1)C(F)(F)c1ccc2sc(C(=O)N[C@H]3CCC[C@H]4CC[C@@H](C(=O)N5CC(c6cccnc6)C5)N4C3=O)cc2c1` (stereo partly drawn) [Compound 306, propyl ((difluoro(2-(((3S,6S,9aS)-5-oxo-3-(3-(pyridin-3-yl)azetidine-1-carbonyl)octahydro-1H-pyrrolo[1,2-a]azepin-6-yl)carbamoyl)benzo [b]thiophen-5-yl)methyl)(phenoxy)phosphoryl)-L-alaninate], 5.52 to 6.00; with `CCCOC(=O)[C@H](C)NP(=O)(Cc1ccc2sc(C(=O)N[C@H]3CCC[C@H]4CC[C@@H](C(=O)N5CC(c6cccnc6)C5)N4C3=O)cc2c1)Oc1ccccc1` (stereo partly drawn) [Compound 307, propyl (((2-(((3S,6S,9aS)-5-oxo-3-(3-(pyridin-3-yl)azetidine-1-carbonyl)octahydro-1H-pyrrolo[1,2-a]azepin-6-yl)carbamoyl)benzo [b]thiophen-5-yl)methyl)(phenoxy)phosphoryl)-L-alaninate], less than 5.52.

Staying with this test, now noted: STAT3, PBMC, compound 3 hrs, then 10 ng/mL IL-6 for 10 min; Table 115.
Turning to `CCCCOC(=O)[C@@H]1CC(F)(F)CN1P(=O)(Cc1ccc2sc(C(=O)N[C@H]3CCC[C@H]4CC[C@@H](C(=O)N5CC(c6cccnc6)C5)N4C3=O)cc2c1)Oc1ccccc1` (stereo partly drawn) [Compound 295, butyl (2S)-4,4-difluoro-1-(((2-(((3S,6S,9aS)-5-oxo-3-(3-(pyridin-3-yl)azetidine-1-carbonyl)octahydro-1H-pyrrolo[1,2-a]azepin-6-yl)carbamoyl)benzo [b]thiophen-5-yl)methyl)(phenoxy)phosphoryl) pyrrolidine-2-carboxylate], the pIC50 is 5.52 to 6.00.

These data come from patent US20250215029A1 (Recludix Pharma, Inc., priority 2022, published 2025).
